Source: patent publication US10493061B2, “Compositions and methods comprising 2-(acylamino)imidazoles” (priority 2014, dated 2019)

Tests used:
[1] = system: MCF-10A normal mammary epithelial cell line; experiment: Dose response, luciferase-based ATP (ATPlite) viability assay; format: cell-based, human; settings: five days of treatment
[2] = system: MCF-10A normal mammary epithelial cell line; experiment: Cell death by propidium iodide staining and flow cytometry; format: cell-based, human
Procedure: Measurement of cell death by propidium iodide staining: Cells were cultured to 80% confluence in 6-well plates and the growth media was then replaced with low serum (2% FBS) drug-containing media. Each condition was assessed in triplicate. Following the completion of treatment, the media and floating cells were collected and combined with the trypsinized adherent cells. The cells were washed with 2% FBS/HBSS, and resuspended in a propidium iodide solution (Cell Signaling) for analysis by flow cytometry. The percentage of propidium iodide positive cells for each treatment condition were averaged and normalized to the vehicle-treated control. The normalized data were plotted as the average±standard error of three replicates.
In order to validate the transition metal screen with a second cell viability assay, propidium iodide uptake was measured in four cell lines by flow cytometry following a 24-hour treatment with either 30 μM ZNA alone or in combination with 30 µM CuSO4 or 30 μM ZnSO4 (FIG. 2B).
Since autophagy can stimulate both pro-death and pro-survival pathways, experiments were next conducted to assess how autophagic inhibitors impacted ZNA's cell death profile. […] As such, cells were treated with ZNA in combination with chloroquine, an inhibitor of autophagosome function, and cell death was assessed by propidium iodide stain following 72 hours of treatment. […]

MCF-10A cells = experiment: Intracellular Zn^2+ by FluoZin-3 staining and flow cytometry; format: cell-based, human
Procedure: (§1) Measurement of intracellular Zn^2+ by FluoZin-3 staining: Cells were seeded in 6-well plates at a density such that at the time of analysis, wells would be 70-80% confluent. Following the completion of treatment, the drug-containing media was removed and replaced with Hank's Balanced Salt Solution (HBSS, Life Technologies) containing 2.5 μM FluoZin-3. The cells were incubated with the indicator for 30 minutes at room temperature in the dark. After staining, the cells were trypsinized, resuspended in HBSS containing 2% FBS, and relative mean fluorescence was measured by flow cytometry (FACscan, BD Biosciences, San Jose, Calif., USA).
(§2) In order to determine whether the transcriptional changes in metal trafficking genes were functionally relevant to ZNA's mechanism of action, intracellular Zn^2+ was quantified using the fluorescent indicator FluoZin-3 followed by flow cytometry analysis (FIG. 1G).
To better understand the cancer-selective synergism observed between ZNA and Zn^2+, an experiment was conducted to measure intracellular Zn^2+ using the fluorescent Zn^2+ indicator FluoZin-3.
(§3) Further probing the ability of ZNA to stimulate increases in intracellular Zn^2+, MCF-10A and MCF-7 cells were treated for three hours with 30 μM ZNA (both with and without exogenous ZnSO4) in zinc-free media; intracellular zinc was then quantified by FluoZin-3 staining (FIG. 3B).

MCF-7s = experiment: Cell viability of MCF-7 cells treated with ZNA and ZNA analogues; format: cell-based, human; settings: Homo sapiens, MCF7S; 24 h treatment
Text: Of the analogues evaluated, those with more electron-donating groups at C5 or on the N^2-carbonyl seem to improve activity.

[3] = system: mouse metallothionein expression (MT1 and MT2) in renal and hepatic tissue; experiment: RT-PCR of metallothionein expression in tissue of treated mice; format: in vivo, FVB/NJ mice; settings: ZNA 100 mg/kg intraperitoneal
Procedure: Real-Time PCR (RT-PCR): For experiments designed to measure gene expression, real-time PCR (RT-PCR) was conducted using a LightCycler 480 (Roche, Basel, Switzerland) and KAPA SYBR FAST qPCR Master Mix (Kapa Biosystems, Boston, Mass., USA). […] Genomic DNA was removed with a DNase digest and 1 μg of RNA was used to synthesize cDNA using a Superscript III Reverse Transcriptase kit from Invitrogen per the manufacturer's protocol; after an RNase H digestion, RT-PCR was performed in a 5 μL reaction using KAPA SYBR FAST qPCR Master Mix (Kapa Biosystems, Boston, Mass., USA). […]; Nat Protocols 2008; 3(6):1101-08. For tissue derived from mouse in vivo experiments, fresh tissue was homogenized using a TissueLyser II for 3 minutes at 30 Hz before isolating RNA.
The next experiment established the relevancy of the biological pathways targeted by ZNA in a whole organism tumor model. To establish bioactivity, the response of normal tissue to ZNA was evaluated. Non-tumor bearing FVB/NJ mice were treated with ZNA (at 100 mg/kg administered via intraperitoneal injection) or a control for either 3 or 24 hours. RT-PCR was used to assess mouse metallothionein expression (MT1 and MT2) in renal and hepatic tissue from the treated mice.

MCF-7 cells = experiment: Intracellular Zn^2+ by FluoZin-3 staining and flow cytometry; format: cell-based, human
Procedure: as §1, §2, §3

[4] = 30 μM ZNA alone, three hours, zinc-free media
[5] = ZNA and ZnSO4, three hours, zinc-free media, compared to ZnSO4 alone

With `COc1ccc(-c2c(Cc3ccccc3)[nH]/c(=N\C(=O)c3ccccc3F)n2C)cc1` [ZNA, (E)-N-(4-benzyl-5-(4-methoxyphenyl)-1-methyl-1H-imidazol-2(3H)-ylidene)-2-fluorobenzamide] the cell viability [1] was “largely unaffected”, the “cell death (propidium iodide uptake)” value ([2]; 30 μM ZNA with 30 μM ZnSO4, 24 hours) was “unaffected” and the “ZNA-induced cell death (propidium iodide)” value ([2]; ZNA with chloroquine, 72 hours) was “did not significantly affect cell death”. The FluoZin-3 fluorescence (MCF-10A cells; [4]) was “no significant increase in FluoZin-3 fluorescence”, the “intracellular zinc (FluoZin-3)” value (MCF-10A cells; 30 μM ZNA alone, up to 48 hours) was “only modest increases in intracellular zinc” and the “increase in FluoZin-3 fluorescence” value (MCF-10A cells; 30 μM ZNA with 30 μM ZnSO4, three hours) was 9 fold. For the same compound, the “fluorescence (FluoZin-3)” value (MCF-10A cells; [5]) was “reduction in fluorescence”, the IC50 (MCF-7s) was 8.8 µM and the “MT1 and MT2 expression” value ([3]; 3 hours, vs control treated mice) was “increased”. For the same compound, the “MT1 and MT2 expression” value ([3]; 24 hours) was “decreased”, the “increase in FluoZin-3 fluorescence” value (MCF-7 cells; 30 μM ZNA alone, 48 hours) was 13 fold and the FluoZin-3 fluorescence (MCF-7 cells; [4]) was “no significant increase in FluoZin-3 fluorescence”. The “increase in fluorescence (FluoZin-3)” value (MCF-7 cells; [5]) was 4.3 fold.
